Literature values, collected in publication PMC10534093 (Food Chemistry: X, 2023).

System: ACE
Conditions: Table 2; ref BIOPEP-UWM and AHTPDB

Row | Substance | Known activity in the database
1 | DRDSYNLHPGDAQRIPAGTTY | ACE inhibitor
2 | DRPSIGNLAGANSLLNALP | ACE inhibitor
3 | EGEQPRPFPFP | ACE inhibitor
4 | IGTLAGANSLLNALP | ACE inhibitor
5 | NNPFKFLVPPQESQKR | ACE inhibitor
6 | PFSFLVPPQESQR | ACE inhibitor
7 | PIYSNKLGKFF | ACE inhibitor
8 | PLDLTSFVLH | ACE inhibitor
9 | PSEVEAVFKPLGPEVGELRV | ACE inhibitor
10 | PSSPFTDLWDPRRVGD | ACE inhibitor
11 | QIGLF [reference compound] | ACE inhibitor
12 | RPSIGNLAGANSLLNALP | ACE inhibitor
13 | RPSIGNLAGANSLLNALPE | ACE inhibitor
14 | TPMIGTLAGANSLLNALP | ACE inhibitor
15 | VISQIPSQVQELAFPG | ACE inhibitor
16 | WGPLVNPESQQGSPR | ACE inhibitor
17 | YEAGVVPPGARFEPPR | ACE inhibitor

System: α-glucosidase
Conditions: Table 1; ref BIOPEP-UWM and AHTPDB

Row | Known activity in the database | Substance
18 | Alpha-glucosidase inhibitor | IQAEGGLT [reference compound]
19 | Alpha-glucosidase inhibitor | IVTVEGGLSVISPKW
20 | Alpha-glucosidase inhibitor | TFSEYPPLGR

System: ACE
Conditions: ref Kheeree et al., 2020

Row | IC50 against ACE [mg/mL] | Substance
21 | 0.008 | GPAGPAGL

Same assay, conditions: ref Sitanggang, Putri, Palupi, Hatzakis, & Budijanto, 2021

Row | IC50 against ACE [mg/mL] | Substance
22 | 0.4 | IPPGVPYWT

Same assay, conditions: ref Tu et al., 2018

Row | IC50 against ACE [mg/mL] | Substance
23 | 2.83 | NMAINPSKENLCSTFCK

Same assay, conditions: reference peptide; ref Yu, Zhao, Liu, Lu, & Chen, 2011

Row | IC50 against ACE [mg/mL] | Substance
24 | 0.42 | QIGLF [reference compound]

Target: α-glucosidase
Conditions: ref Zhang, Wang, & Li, 2016

Row | IC50 against α-glucosidase [mg/mL] | Substance
25 | 0.093 | NSPR
